Measurements taken from patent US11819533B2, “Compositions and methods for the treatment of fungal infections” (Cidara Therapeutics, Inc., priority 2017, dated 2023).
Starred links: 1 amine or outer side, 2 acyl side, 3 side chain; linkers in the order of their positions; H or OH if unused. Positions of bridges follow the written chain, without caps; N, C: chain ends. Non-standard residues stand in square brackets, D forms with d. Residues, ends and D or L forms follow the SMILES beside them. *: point of attachment. Orn(4R-OH,5R-OCH2CH2NMe3+) = C[N+](C)(C)CCO[C@@H](N[*:3])[C@H](O)C[C@H](N[*:1])C(=O)[*:2]; pTerphenylCO(4''-OnC5H11) = CCCCCOc1ccc(-c2ccc(-c3ccc(C(=O)*)cc3)cc2)cc1; Orn(4R-OH,5R-OH) = O=C([C@H](C[C@@H](O)[C@@H](O)N[*:3])N[*:1])[*:2]; hTyr(3S-OH,4S-OH) = N[C@H](C(=O)O)[C@H](O)[C@@H](O)c1ccc(O)cc1; Pro(3S-OH,4S-Me) = C[C@H]1CN[C@H](C(=O)O)[C@H]1O; Hyp = O=C(O)[C@@H]1C[C@@H](O)CN1

What was measured:
[1] = PBS buffer drop test (Example 3); format: physicochemical; details: 0.50% Tween 80, 0.76% mannitol, 0.125% sodium lactate in 3.5% dextrose solution, pH ~5.5; 2 mg/mL, 0.47 mg/mL in PBS
Protocol: These solutions were tested for solubility in the PBS drop test, which involved adding the solution dropwise into PBS solution (1:4.3 dilution) and visually observing the resulting solution for any precipitation. PBS buffer serves as a surrogate for plasma, and the PBS drop test is used to evaluate the potential for insolubility as the drug enters the bloodstream at the injection site.

Candida auris = Candida auris infection in a murine model of disseminated candidiasis; format: in vivo; details: immunosuppressed CD-1 mice; for Percent survival at the end of the study: day 14, CD101 20 mg/kg IP, fluconazole 20 mg/kg PO, amphotericin B 0.3 mg/kg IP, doses on day 1 and day 4
Protocol: Female 6-8 week old CD-1 mice were immunosuppressed with cyclophosphamide (200 mg/kg) 3 days prior to infection and 150 mg/kg 1 day post-infection. On the day of infection, mice were inoculated with 3×10^7 C. auris blastospores via the lateral tail vein. Mice were randomized into 5 groups (n=5 for colony forming units (CFU) and n=10 for survival): CD101 20 mg/kg administered by intraperitoneal (IP) injection, fluconazole 20 mg/kg administered per os (PO), amphotericin B 0.3 mg/kg IP, and a vehicle control. Treatments were administered 2 hours post-infection (day 1) and again on day 4 of the study for a total of 2 doses. Mice were monitored daily and a survival curve was generated. CFU groups were sacrificed on day 8 of the study. One kidney was removed from each mouse, homogenized, plated on potato dextrose agar (PDA), and incubated at 35° C. for 2 days to determine CFU. The remaining survival mice were monitored until the end of the study (day 14).

[2] = system: C. albicans SC-5314 biofilms; test: Time lapse microscopy of biofilm formation; format: cell-based, Candida albicans; details: followed up to 16 h
Source text: The effective CD101 concentration obtained from the above experiments was used to monitor its effect on biofilm formation in real time using TLM, which involves capturing real-time images of a single frame at specific time intervals, allowing temporal monitoring of the interactions occurring between the drug and Candida biofilms. Captured images were combined in a time sequence, resulting in an animation depicting the sequence of events that occurred with the passage of time. Briefly, the discs with C. albicans (adhered for 90 min as above) were placed in a 35-mm-diameter glass-bottom Petri dish (MatTek Corp., Ashland, MA). […] Phase contrast images for this interaction were captured immediately from 0 h and followed up to 16-17 h on a Leica DMI 6000 B inverted microscope connected to a Retiga EXi Aqua camera (Q-imaging Vancouver British Columbia). To determine the structural changes in the maturing biofilm, both acquisition and analysis of a series of horizontal (xy) optical sections of the biofilm was done using Metamorph Imaging software (Molecular Devices, Downington, PA). Disc incubated with media alone was used as control.

[3] = system: C. albicans SC-5314 biofilms; test: Activity against mature phase biofilms (treatment), XTT and CSLM; format: cell-based, Candida albicans; details: for CSLM biofilm architecture, mature phase / Metabolic activity (XTT) of mature phase biofilms compared to untreated: 24 h exposure of mature biofilms, CD101 0.25 and 1 μg/ml, fluconazole 1 and 4 μg/ml; for Thickness of biofilms, mature phase: CSLM, untreated control 43 μm
Protocol: (§1) C. albicans SC-5314 was used for the current study.
(§2) In this study, biofilms were grown in vitro using a biofilm model (Chandra et al., Nature Protocols 3:1909, 2008) and the effect of CD101 on adhesion phase biofilms (representing prevention of biofilms) or mature phase biofilms (representing treatment of biofilms) was determined.
(§3) Biofilms were formed on silicone elastomer (SE) discs using a catheter-associated-biofilm model (Chandra et al., Nature Protocols 3:1909, 2008; Chandra et al., J. Bacteriol. 183: 5385, 2001; Chandra et al., J. Dental Research 80: 903, 2001). For evaluation of activity against adhesion phase biofilms (prevention), Candida cells were adhered to catheter discs for 90 min. […] For evaluation of activity against mature phase biofilms (treatment), Candida cells were adhered to catheter discs for 90 min, then transferred to fresh media and incubated for a further 24 h to allow formation of biofilms. […] Discs incubated with fluconazole or media alone were used as controls in all experiments.
(§4) At the end of drug exposure in both adhesion and mature phase biofilms, biofilms were quantified by measuring their metabolic activity using XTT assay (Chandra et al., Nature Protocols 3:1909, 2008; Chandra et al., J. Bacteriol. 183: 5385, 2001; Chandra et al., J. Dental Research 80: 903, 2001). Following incubation with drugs, discs were transferred to fresh plates containing phosphate buffered saline with XTT and menadione, incubated for 3 h at 37° C. and optical density was read at 492 nm. Separate batches of biofilms were stained with fluorescent dyes (FUN1™, CONA) and observed under Confocal Scanning Laser Microscope (CSLM) to evaluate biofilm architecture and thickness (Chandra et al., Nature Protocols 3:1909, 2008; Chandra et al., J. Bacteriol. 183: 5385, 2001).

[4] = system: C. albicans SC-5314 biofilms; test: Activity against adhesion phase biofilms (prevention), XTT and CSLM; format: cell-based, Candida albicans; details: for CSLM biofilm architecture, adhesion phase / Metabolic activity (XTT) of adhesion phase biofilms compared to untreated: 24 h exposure, CD101 0.25 and 1 μg/ml, fluconazole 1 and 4 μg/ml; for Thickness of biofilms, adhesion phase: CSLM, untreated control 36 μm
Protocol: as §1, §2, §3, §4

[5] = PBS drop test of CD101 IV formulations (Example 4); format: physicochemical; details: 6 mg/mL in 1.25% Tween 80, 5% mannitol, 0.3% glacial acetic acid, pH ~4.5; 0.25 mL into 1 mL PBS
Protocol: Solubility of CD101-containing formulations with different percentages of Tween 80 (also referred to as polysorbate 80) was evaluated in a “PBS drop test.” This involved preparing a known concentration of CD101 in a formulation and injecting the formulation into PBS to visually examine for precipitation. This test was used to assess if a CD101-containing formulation would remain soluble in blood during IV infusions.
(1) 1.25% Tween 80, 5% mannitol, 0.3% glacial acetic acid, pH ˜4.5
(2) 0.50% Tween 80, 0.76% mannitol, 0.125% sodium lactate in 3.5% dextrose solution, pH ˜5.5
Different concentrations of CD101 acetate were prepared in vehicles (1) and (2) and tested for solubility in the PBS drop test.
Add dropwise the formulated solution into PBS solution (1:4 dilution). Visually observe the resulting solution upon addition for any precipitation.

Sprague Dawley rats = test: 14-day repeat-dose intravenous infusion toxicity study; format: in vivo
Protocol: The primary purpose of this study was to evaluate the toxicity of CD101 when administered intravenously as a 20-minute infusion into the lateral tail vein of Sprague Dawley rats for fourteen consecutive days. A positive control group (Eraxis®) with a similar structure and pharmacodynamic activity was included in the study design.
The test article, CD101 acetate, was a white to off-white powder. The test article was prepared into dosing formulations for intravenous dose administration. One hundred experimentally naïve Sprague Dawley rats (50 males and 50 females), a minimum of 8 weeks old and weighing 255-318 grams (males) and 192-215 (females) at the outset of the study were assigned to treatment groups as shown in Table 7 below:
All animals were dosed on Days 1 through 3 inclusive. As a result of tail vein irritation observed among all study groups, dose administration was suspended on Day 4 to allow the tails to recover. Dosing resumed on Day 5 and continued for a maximum of ten additional days (Days 5 through 14 inclusive). Animals that could no longer be dosed during this time remained on study.
Male and female Sprague Dawley rats were to receive CD101 acetate at doses of 0, 2, 6 and 20 mg/kg/day (Groups 1, 3, 4 and 5, respectively) or Eraxis® (the positive control article, Group 2) at a dose of 40 mg/kg/day, intravenously as a 20 minute infusion into the left or right lateral tail vein for fourteen consecutive days. During the first three treatment days, all animals were dosed with the first vehicle used on this study (1.75% Tween 80/5% Dextrose: Groups 1 and 3-5; 5% Dextrose: Group 2). As a result of the localized tail swelling observed during the first three days of treatment, study Day 4 served as a drug-free day to alleviate tail vein irritation. Dose administration resumed on Day 5 using a new vehicle (5% Mannitol/2.5% Tween 80/0.3% acetic acid: Groups 1 and 3-5; 5% Mannitol/0.3% acetic acid: Group 2) for the remainder of the treatment period (Days 5-14). Those animals that could no longer be dosed because of severe vein irritation were retained on study, untreated, until the end of the study (Day 15).

SMILES | Appearance upon PBS drop test [1] | Average reduction in kidney CFU compared to fluconazole, amphotericin B and vehicle treated groups (Candida auris; 20 mg/kg IP on day 1 and day 4, kidney on day 8) [log] | Percent survival at the end of the study (Candida auris) [%] | Temporal effect on 3 h formed biofilms (time lapse) ([2]; 0.25 μg/ml added after 3 h biofilm formation) | Temporal effect on formation of biofilms (time lapse) ([2]; 0.25 μg/ml added to cells adhered for 90 min) | CSLM biofilm architecture, mature phase [3] | Metabolic activity (XTT) of mature phase biofilms compared to untreated [3] | Thickness of biofilms, mature phase [3] | CSLM biofilm architecture, adhesion phase [4] | Metabolic activity (XTT) of adhesion phase biofilms compared to untreated [4] | Thickness of biofilms, adhesion phase [4] | Time the formulated solution remained soluble in PBS [5] | Incidence of tail vein irritation (Sprague Dawley rats; Days 1-3, first vehicle (1.75% Tween 80 and 5% Dextrose for CD101 acetate; 5% Dextrose for Eraxis), Eraxis 40 mg/kg/day, CD101 acetate 6 and 20 mg/kg/day, males and females) | Vein irritation compared to Groups 1, 3 and 4 (Sprague Dawley rats; Days 5-14, second vehicle (5% Mannitol, 2.5% Tween 80, 0.3% Acetic Acid for CD101 acetate; 5% Mannitol and 0.3% Acetic Acid for Eraxis), Eraxis 40 mg/kg/day, CD101 acetate 20 mg/kg/day) | Animals dosed for less than the intended ten-day duration (Days 5-14) as a result of tail swelling/lesions (Sprague Dawley rats; males, 40 mg/kg/day (Group 2), 20-minute IV infusion, second vehicle 5% Mannitol/0.3% acetic acid) [%]
CCCCCOc1ccc(-c2ccc(-c3ccc(C(=O)N[C@H]4C[C@@H](O)[C@@H](OCC[N+](C)(C)C)NC(=O)[C@@H]5[C@@H](O)[C@@H](C)CN5C(=O)[C@H]([C@@H](C)O)NC(=O)[C@H]([C@H](O)[C@@H](O)c5ccc(O)cc5)NC(=O)[C@@H]5C[C@@H](O)CN5C(=O)[C@H]([C@@H](C)O)NC4=O)cc3)cc2)cc1 [CD101] ({pTerphenylCO(4''-OnC5H11)}-[Orn(4R-OH,5R-OCH2CH2NMe3+)]T[Hyp][hTyr(3S-OH,4S-OH)]T[Pro(3S-OH,4S-Me)]; lactam 1-C) | Clear | 3 | 80 | remained stunted and failed to grow into mature biofilms | only adhered cells with stunted growth, which failed to grow into mature biofilms | eradicated and showed bulged, deformed/broken cells | significantly less metabolic activity | 24 μm | only remnants of adhered cells, and no biofilm maturation | formed significantly less biofilms | 4 μm | at least 1 hour | – | – | –
CCCCCOc1ccc(-c2ccc(-c3ccc(C(=O)N[C@H]4C[C@@H](O)[C@@H](O)NC(=O)[C@@H]5[C@@H](O)[C@@H](C)CN5C(=O)[C@H]([C@@H](C)O)NC(=O)[C@H]([C@H](O)[C@@H](O)c5ccc(O)cc5)NC(=O)[C@@H]5C[C@@H](O)CN5C(=O)[C@H]([C@@H](C)O)NC4=O)cc3)cc2)cc1 [Eraxis®, Anidulafungin, reference compound] ({pTerphenylCO(4''-OnC5H11)}-[Orn(4R-OH,5R-OH)]T[Hyp][hTyr(3S-OH,4S-OH)]T[Pro(3S-OH,4S-Me)]; lactam 1-C) | – | – | – | – | – | – | – | – | – | – | – | – | highest | only marginally higher | 30
C[C@@H]1[C@H](O)[C@@H](C)/C=C/C=C/C=C/C=C/C=C/C=C/C=C/[C@H](O[C@@H]2O[C@H](C)[C@@H](O)[C@H](N)[C@@H]2O)C[C@@H]2O[C@](O)(C[C@@H](O)C[C@@H](O)[C@H](O)CC[C@@H](O)C[C@@H](O)CC(=O)O[C@H]1C)C[C@H](O)[C@H]2C(=O)O [amphotericin B, reference compound] | – | – | 30 | – | – | – | – | – | – | – | – | – | – | – | –
OC(Cn1cncn1)(Cn1cncn1)c1ccc(F)cc1F [fluconazole, reference compound] | – | – | 0 | – | – | did not affect Candida biofilms | neither concentrations of fluconazole (1 and 4 μg/ml) affected these biofilms | no effect | did not inhibit biofilm formation | did not inhibit biofilm formation | no effect on biofilm thickness | – | – | – | –
